Converted amounts (≈) assume the structure as drawn. Where two headings read alike, the source gives them in different places.
Columns and labels:
Assay type in all cases: cell-based
[1] = test system: Staphylococcus aureus ATCC25923; assay: MIC broth microdilution, S. aureus ATCC25923; details: Staphylococcus aureus ATCC25923 (sensitive strain), CAMHB, 37° C., 18-20 hours, 90% growth inhibition
Protocol: (§1) Compound 7 was tested to evaluate its inhibitory effect on Staphylococcus aureus. An experiment was conducted to assess the minimum inhibitory concentration (MIC) of the compound of Formula (I).
(§2) 20.0 mg of test compound was weighed and dissolved in 0.5 mL of filtered DMSO (100%) to prepare a stock solution of 40 mg/mL concentration. Initial stock (Stock 1 and Stock 2) and working stock solution (10 concentrations) were prepared as mentioned in the table below. Final testing concentration in the micro-titer plates was starting from 1000 μg/mL in experiment plate.
(§3) The reference standards gentamicin, norfloxacin and levofloxacin were dissolved using sterile ultrapure water to prepare a stock solution of 2.0 mg/mL concentration. Working stock solution of 64 μg/mL was prepared in CAMHB by diluting 0.032 mL of 2.0 mg/mL stock solution in 0.968 mL of growth medium. The testing concentration in the micro-titer plates is 32 μg/mL.
(§4) Tester strains were sub-cultured on Soyabean Casein digest Agar (SCDA) and incubated at 37° C. for 18-20 hours in aerobic condition. After incubation, the isolated colonies were suspended in sterile saline to prepare the bacterial suspension. The bacterial suspension was adjusted to ˜1×10^8 CFU/mL.
(§5) ? titer plates (Flat bottom) were prepared as per the CLSI recommendations. The test compound and reference compounds dilution were performed in the micro titer plates. Two hundred microliters of respective growth medium were added to the wells of a 96-wellflat bottom plate well A1 to E1 for Broth control. One hundred microliters of respective growth medium were added to all the wells B3 to B11, C3 to C11, D3 to D11, E3 to E11 except B2 to E2. One hundred microliters of prepared test compound 7 working stock solution (10 concentrations) were added from A2 to A11. Two hundred microliters of reference Standard were added to B2, C2 and D2. Two hundred microliters of DMSO were to E2 as negative control. One hundred microliter was transferred from B2, C2, D2 and E2 wells B3, C3, D3 and E3 wells respectively and serially diluted up to B11, C11, D11 and E11 wells. One hundred microliter after serial dilution was discarded from Bit, C11, D11 and E11 wells, wells A12 to F12 serve as culture control.
(§6) The adjusted bacterial suspension was further diluted in CAMHB (Section 6.5), 100 μl of diluted culture was added to micro titer plate where the final concentration was 5×10^5 CFU/mL. Plates were incubated at 37° C. for 18-20 hours at aerobic conditions.
(§7) After incubation, visual readings were recorded, and the optical density was measured at 600 nm in spectrophotometer. The concentration of compound at 90% growth was inhibited compared to growth control was considered as the MIC value.

[2] = test system: Staphylococcus aureus ATCC700699; assay: MIC broth microdilution, S. aureus ATCC700699; details: Staphylococcus aureus ATCC700699 (resistant to Methicillin and Oxacillin), CAMHB, 37° C., 18-20 hours, 90% growth inhibition
Protocol: as §1, §2, §3, §4, §5, §6, §7

[3] = test system: Staphylococcus aureus ATCC29213; assay: MIC broth microdilution, S. aureus ATCC29213; details: Staphylococcus aureus ATCC29213 (sensitive strain), CAMHB, 37° C., 18-20 hours, 90% growth inhibition
Protocol: as §1, §2, §3, §4, §5, §6, §7

[4] = test system: Staphylococcus aureus (Gentamicin resistant) ATCC43300; assay: MIC broth microdilution, S. aureus ATCC43300; details: Staphylococcus aureus ATCC43300 (resistant to Methicillin, Oxacillin, Gentamicin and Azithromycin), CAMHB, 37° C., 18-20 hours, 90% growth inhibition
Protocol: as §1, §2, §3, §4, §5, §6, §7

[5] = test system: Escherichia coli ATCC9637; assay: MIC broth microdilution, E. coli ATCC9637; details: CAMHB, 37° C., 18-20 hours, 90% growth inhibition
Protocol: [The source words this procedure for another organism and reports this organism under the same test.] as §1, §2, §3, §4, §5, §6, §7

[6] = test system: Pseudomonas aeruginosa ATCC 9027; assay: MIC broth microdilution, P. aeruginosa ATCC 9027; details: 37° C., 18-20 hours, 90% growth inhibition
Protocol: [The source words this procedure for another organism and reports this organism under the same test.] as §1, §2, §3, §4, §5, §6, §7

[7] = test system: Klebsiella pneumoniae ATCC 700603; assay: MIC broth microdilution, K. pneumoniae ATCC 700603; details: 37° C., 18-20 hours, 90% growth inhibition
Protocol: [The source words this procedure for another organism and reports this organism under the same test.] as §1, §2, §3, §4, §5, §6, §7

[8] = test system: Gram-positive Staphylococcus aureus strains, including MRSA and GR-MRSA; assay: MIC, summary over S. aureus strains; details: various Staphylococcus aureus strains, including MRSA and GR-MRSA (text summary of Table 1)
Protocol: as §1, §2, §3
as §4, with “CFU/mL. […]” for “CFU/mL.”
After incubation, visual readings were recorded, and the optical density was measured at 600 nm in spectrophotometer. […]

[9] = ATCC700603, CAMHB, read-out: MIC

C[C@H]1COc2c(N3CCN(C)CC3)c(F)cc3c(=O)c(C(=O)O)cn1c23 [Levofloxacin, levofloxacin]
MIC ([1]; read-out: MIC): 0.13 µg/mL (≈ 0.36 µM) | MIC ([2]; read-out: MIC): 16 µg/mL (≈ 44.3 µM) | MIC ([3]; read-out: MIC): 0.13 µg/mL (≈ 0.36 µM) | MIC ([4]; read-out: MIC): 0.13 µg/mL (≈ 0.36 µM) | MIC ([5]; read-out: MIC): ≤ 0.06 µg/mL | MIC ([6]; ATCC9027, CAMHB, read-out: MIC): 0.5 µg/mL (≈ 1.38 µM) | MIC [7, 9]: 0.5 µg/mL (≈ 1.38 µM)

gentamicin
MIC [1]: 0.25 µg/mL | MIC [2]: >32.00 µg/mL | MIC [3]: 0.50 µg/mL | MIC [4]: >32.00 µg/mL | MIC [5]: 1.00 µg/mL | MIC ([6]; CAMHB): 2.00 µg/mL | MIC ([7]; CAMHB): 16.00 µg/mL

CCn1cc(C(=O)O)c(=O)c2cc(F)c(N3CCNCC3)cc21 [Norfloxacin, norfloxacin]
MIC ([1]; read-out: MIC): 2 µg/mL (≈ 6.26 µM) | MIC ([2]; read-out: MIC): > 32 µg/mL | MIC ([3]; read-out: MIC): 1 µg/mL (≈ 3.13 µM) | MIC ([4]; read-out: MIC): 1 µg/mL (≈ 3.13 µM) | MIC ([5]; read-out: MIC): ≤ 0.06 µg/mL | MIC ([6]; ATCC9027, CAMHB, read-out: MIC): 0.5 µg/mL (≈ 1.57 µM) | MIC [7, 9]: 4 µg/mL (≈ 12.5 µM)

CCCc1nn(C)c2c(-c3c[nH]c4ccc(Cl)cc34)nc(-c3ccc(Cl)cc3)nc12 [Compound 7, 7-(5-chloro-1H-indol-3-yl)-5-(4-chlorophenyl)-1-methyl-3-propyl-1H-pyrazolo[4,3-d]pyrimidine]
MIC ([1]; read-out: MIC): 1 µg/mL (≈ 2.29 µM) | MIC ([2]; read-out: MIC): 1 µg/mL (≈ 2.29 µM) | MIC ([3]; read-out: MIC): 1 µg/mL (≈ 2.29 µM) | MIC ([4]; read-out: MIC): 1 µg/mL (≈ 2.29 µM) | MIC ([5]; read-out: MIC): > 1000 µg/mL | MIC ([6]; ATCC9027, CAMHB, read-out: MIC): > 1000 µg/mL | MIC [7, 9]: > 1000 µg/mL | MIC [8]: 1 µg/mL (≈ 2.29 µM)

Source: patent publication US20250144102A1, “1 H-PYRAZOLO[4,3-D]PYRIMIDINE DERIVATIVES AS STAPHYLOCOCCUS AUREUS INHIBITORS” (DR REDDY'S INSTITUTE OF LIFE SCIENCES, priority 2022, published 2025)
